# Test results reported in US12122816B2, “Long acting peptide tyrosine tyrosine (PYY) analogs and methods of use” (Intarcia Therapeutics, Inc., priority 2020, dated 2024).
# Starred links: 1 amine or outer side, 2 acyl side, 3 side chain; linkers in the order of their positions; H or OH if unused. Non-standard residues stand in square brackets, D forms with d. Residues, ends and D or L forms follow the SMILES beside them. Groups on a side chain read outwards from the residue. *: point of attachment. C20 diacid = O=C(O)CCCCCCCCCCCCCCCCCCC(=O)*; γGlu = O=C(O)[C@H](CCC(=O)[*:2])N[*:1]; NMeY = CN[C@@H](Cc1ccc(O)cc1)C(=O)O
# Key:
# Experiment in all cases: NPY receptor functional assay (cAMP, HEK-CNG cells, ACTOne membrane potential dye)
# Assay type in all cases: cell-based
# [1] = molecular target: human Y4 receptor (Homo sapiens, UniProt P50391); details: standard PP, species (human or rat) not given
# Source text: (§1) The NPY family of G-protein coupled receptors include Y1, Y2, Y4, and Y5 in humans and rats. […] Following agonist binding, the receptor-G protein complex activates a downstream intracellular signaling cascade which leads to inhibition of adenylate cyclase and a reduction in intracellular cAMP levels.
# (§2) HEK-CNG cells stably expressing the human or rat Y1, Y2, Y4 or Y5 receptors (Codex Biosolutions) were used to characterize the functional potency of peptide agonists using the ActOne™ membrane potential dye kit (Codex Biosolutions). In addition to each NPY receptor, each cell line encodes a proprietary exogenous Cyclic Nucleotide-Gated (CNG) channel (Codex Biosolutions). The channel is activated by elevated intracellular levels of cAMP, resulting in ion flux and cell membrane depolarization which can be detected with a calcium sensitive dye or fluorescent membrane potential (MP) dye. Cells were carried in growth media containing 90% DMEM, 10% FBS, 250 mcg/mL G418 and 1 mcg/mL puromycin for no more than 15 passages.
# (§3) Prior to testing, cells were counted and dispensed at 14,000 cells per well (Y1, Y4 and Y5) or 28,000 cells per well (Y2) into black 384 well Poly-D-Lysine plates at 20 mcL per well. Covered plates were then incubated at room temperature for 30 minutes followed by an overnight incubation at 37° C. in 5% C02. The following day, media was removed and wells were washed once with 40 mcL Dulbecco's phosphate buffered saline. […] Ten microliters of experimental peptide or peptide standard was added in triplicate to wells and incubated for 50 minutes at room temperature in the dark. Following this incubation step, plates were read again as before (final read).
# (§4) NPY receptor activation, leading to a reduction in intracellular cAMP levels, is detected as a decrease in isoproteranol induced fluorescent signal. Peptide standard and experimental values were initially transformed in excel using the formula: final read/initial read. Transformed values were then normalized to receptor specific standard values (1×10−13 M minimum and 1×10−7 M maximum) using the formula: (test value−standard minavg)/(standard maxavg−standard minavg)*100. […] Normalized data was analyzed from triplicate tests and used to estimate the EC50 for each test peptide on each receptor. Data was fit in GraphPad Prism software (v8.2.1) using a 3-parameter logistic curve model: Y=Bottom+(Top−Bottom)/(1+10^((LogEC50−X))). EC50 values were converted to pEC50 values using the formula: pEC50=−Log(EC50).
# [2] = molecular target: T1, human Y2 receptor (Homo sapiens, UniProt P49146); details: NPY2R pEC50, HEK-CNG cells; standard PYY(3-36); species (human or rat) not given
# T1 sequence (P49146 1-381): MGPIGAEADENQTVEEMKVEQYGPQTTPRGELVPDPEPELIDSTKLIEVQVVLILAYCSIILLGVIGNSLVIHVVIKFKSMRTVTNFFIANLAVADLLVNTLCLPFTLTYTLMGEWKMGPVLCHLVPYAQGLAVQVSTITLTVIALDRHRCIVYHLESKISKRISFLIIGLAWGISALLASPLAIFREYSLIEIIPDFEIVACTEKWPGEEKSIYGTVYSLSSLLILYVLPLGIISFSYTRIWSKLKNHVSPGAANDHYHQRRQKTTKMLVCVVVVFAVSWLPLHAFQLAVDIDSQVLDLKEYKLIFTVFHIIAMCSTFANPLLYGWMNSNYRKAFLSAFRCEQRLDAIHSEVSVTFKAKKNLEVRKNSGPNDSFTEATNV
# Source text: as §1, §2, §3, §4
# [3] = molecular target: T2, human Y5 receptor (Homo sapiens, UniProt Q15761); details: NPY5R pEC50, HEK-CNG cells; standard NPY; species (human or rat) not given
# T2 sequence (Q15761 1-445): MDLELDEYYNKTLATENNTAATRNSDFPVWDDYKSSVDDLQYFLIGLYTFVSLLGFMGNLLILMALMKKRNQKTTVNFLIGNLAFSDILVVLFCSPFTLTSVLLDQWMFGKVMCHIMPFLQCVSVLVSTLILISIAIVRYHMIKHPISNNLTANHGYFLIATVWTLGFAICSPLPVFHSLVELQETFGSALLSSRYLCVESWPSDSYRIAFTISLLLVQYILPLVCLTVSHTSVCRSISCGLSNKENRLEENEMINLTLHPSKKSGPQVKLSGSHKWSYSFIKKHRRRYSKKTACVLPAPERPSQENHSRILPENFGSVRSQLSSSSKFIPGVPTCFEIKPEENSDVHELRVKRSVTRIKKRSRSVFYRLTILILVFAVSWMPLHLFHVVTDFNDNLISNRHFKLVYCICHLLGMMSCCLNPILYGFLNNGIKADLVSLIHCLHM
# Source text: as §1, §2, §3, §4
# Chain of human Y4 receptor (P50391 whole entry): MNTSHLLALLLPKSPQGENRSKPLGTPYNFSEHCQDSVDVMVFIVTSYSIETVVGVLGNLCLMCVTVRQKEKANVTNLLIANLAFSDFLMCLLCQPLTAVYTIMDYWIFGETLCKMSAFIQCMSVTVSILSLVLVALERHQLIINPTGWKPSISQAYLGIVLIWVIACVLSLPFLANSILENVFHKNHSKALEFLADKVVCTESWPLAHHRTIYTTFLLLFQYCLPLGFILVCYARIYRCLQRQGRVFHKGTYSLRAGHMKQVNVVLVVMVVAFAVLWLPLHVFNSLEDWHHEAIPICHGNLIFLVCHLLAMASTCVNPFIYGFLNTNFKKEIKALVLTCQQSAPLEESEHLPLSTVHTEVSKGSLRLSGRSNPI
SMILES,NPY4R pEC50 [1],EC50 [2],EC50 [3]
CC(C)C[C@H](NC(=O)[C@H](CC(=O)O)NC(=O)[C@H](C)NC(=O)[C@H](Cc1ccc(O)cc1)NC(=O)[C@H](Cc1ccc(O)cc1)NC(=O)[C@H](CCCNC(=N)N)NC(=O)[C@H](CC(N)=O)NC(=O)[C@H](Cc1c[nH]c2ccccc12)NC(=O)[C@H](CCC(=O)O)NC(=O)[C@H](CCC(=O)O)NC(=O)[C@@H]1CCCN1C(=O)[C@H](CO)NC(=O)[C@H](C)NC(=O)[C@H](CC(=O)O)NC(=O)[C@H](CCCCN)NC(=O)CNC(=O)[C@@H]1CCCN1C(=O)[C@H](C)NC(=O)[C@H](CCC(=O)O)NC(=O)[C@@H]1CCCN1C(=O)[C@H](CCCCN)NC(=O)[C@@H]1CCCN1)C(=O)N[C@@H](CCCNC(=N)N)C(=O)N[C@@H](Cc1c[nH]cn1)C(=O)N[C@@H](Cc1ccc(O)cc1)C(=O)N[C@@H](CC(C)C)C(=O)N[C@@H](CCCCNC(=O)CC[C@H](NC(=O)CC[C@H](NC(=O)CCCCCCCCCCCCCCCCCCC(=O)O)C(=O)O)C(=O)O)C(=O)N[C@@H](Cc1c[nH]c2ccccc12)C(=O)N[C@@H](CC(C)C)C(=O)N[C@H](C(=O)N[C@@H](CCCNC(=N)N)C(=O)N[C@@H](CCC(N)=O)C(=O)N[C@@H](CCCNC(=N)N)C(=O)N[C@@H](Cc1ccccc1)C(N)=O)[C@@H](C)O [Compound A51],inactive,,
CC(C)C[C@H](NC(=O)[C@H](Cc1ccc(O)cc1)NC(=O)[C@H](Cc1c[nH]cn1)NC(=O)[C@H](CCCNC(=N)N)NC(=O)[C@H](C)NC(=O)[C@H](CC(=O)O)NC(=O)[C@H](C)NC(=O)[C@H](Cc1ccc(O)cc1)NC(=O)[C@H](Cc1ccc(O)cc1)NC(=O)[C@H](CCCNC(=N)N)NC(=O)[C@H](CCCCNC(=O)CC[C@H](NC(=O)CC[C@H](NC(=O)CCCCCCCCCCCCCCCCCCC(=O)O)C(=O)O)C(=O)O)NC(=O)[C@H](Cc1c[nH]c2ccccc12)NC(=O)[C@H](CCC(=O)O)NC(=O)[C@H](CCC(=O)O)NC(=O)[C@@H]1CCCN1C(=O)[C@H](CO)NC(=O)[C@H](C)NC(=O)[C@H](CC(=O)O)NC(=O)[C@H](CCCCN)NC(=O)CNC(=O)[C@@H]1CCCN1C(=O)[C@H](C)NC(=O)[C@H](CCC(=O)O)NC(=O)[C@@H]1CCCN1C(=O)[C@H](CCCCN)NC(=O)[C@@H]1CCCN1)C(=O)N[C@@H](CC(N)=O)C(=O)N[C@@H](Cc1c[nH]c2ccccc12)C(=O)N[C@@H](CC(C)C)C(=O)N[C@H](C(=O)N[C@@H](CCCNC(=N)N)C(=O)N[C@@H](CCC(N)=O)C(=O)N[C@@H](CCCNC(=N)N)C(=O)N(C)[C@@H](Cc1ccc(O)cc1)C(N)=O)[C@@H](C)O [Compound A9],inactive,0.251 nM,
CC(C)C[C@H](NC(=O)[C@H](CC(=O)O)NC(=O)[C@H](CCCCN)NC(=O)[C@H](Cc1ccc(O)cc1)NC(=O)[C@H](Cc1ccc(O)cc1)NC(=O)[C@H](CCCNC(=N)N)NC(=O)[C@H](CC(N)=O)NC(=O)[C@H](Cc1c[nH]c2ccccc12)NC(=O)[C@H](CCC(=O)O)NC(=O)[C@H](CCCCN)NC(=O)[C@@H]1CCCN1C(=O)[C@H](CO)NC(=O)[C@H](C)NC(=O)[C@H](CC(=O)O)NC(=O)[C@H](CCCCN)NC(=O)CNC(=O)[C@@H]1CCCN1C(=O)[C@H](CCCCNC(=O)CC[C@H](NC(=O)CC[C@H](NC(=O)CCCCCCCCCCCCCCCCCCC(=O)O)C(=O)O)C(=O)O)NC(=O)[C@H](CCC(=O)O)NC(=O)[C@@H]1CCCN1C(=O)[C@H](CCCCN)NC(=O)[C@@H]1CCCN1)C(=O)N[C@@H](CCCNC(=N)N)C(=O)N[C@@H](Cc1c[nH]cn1)C(=O)N[C@@H](Cc1ccc(O)cc1)C(=O)N[C@@H](CC(C)C)C(=O)N[C@@H](CC(N)=O)C(=O)N[C@@H](Cc1c[nH]c2ccccc12)C(=O)N[C@@H](CC(C)C)C(=O)N[C@H](C(=O)N[C@@H](CCCNC(=N)N)C(=O)N[C@@H](CCC(N)=O)C(=O)N[C@@H](CCCNC(=N)N)C(=O)N[C@@H](Cc1ccccc1)C(N)=O)[C@@H](C)O [Compound A71] (H-PKPEK([γGlu-γGlu-C20 diacid])PGKDASPKEWNRYYKDLRHYLNWLTRQRF-NH2; N-terminus assumed),,0.02 nM,1.58 nM
CC(C)C[C@H](NC(=O)[C@H](Cc1ccc(O)cc1)NC(=O)[C@H](Cc1c[nH]cn1)NC(=O)[C@H](CCCNC(=N)N)NC(=O)[C@H](C)NC(=O)[C@H](CC(=O)O)NC(=O)[C@H](C)NC(=O)[C@H](Cc1ccc(O)cc1)NC(=O)[C@H](Cc1ccc(O)cc1)NC(=O)[C@H](CCCNC(=N)N)NC(=O)[C@H](CC(N)=O)NC(=O)[C@H](CC(C)C)NC(=O)[C@H](CCC(=O)O)NC(=O)[C@H](CCC(=O)O)NC(=O)[C@@H]1CCCN1C(=O)[C@H](CO)NC(=O)[C@H](C)NC(=O)[C@H](CC(=O)O)NC(=O)[C@H](CCCCN)NC(=O)[C@H](CCCCNC(=O)CC[C@H](NC(=O)CC[C@H](NC(=O)CCCCCCCCCCCCCCCCCCC(=O)O)C(=O)O)C(=O)O)NC(=O)[C@@H]1CCCN1C(=O)[C@H](C)NC(=O)[C@H](CCC(=O)O)NC(=O)[C@@H]1CCCN1C(=O)[C@H](CCCCN)NC(=O)[C@@H]1CCCN1)C(=O)N[C@@H](CC(N)=O)C(=O)N[C@@H](Cc1c[nH]c2ccccc12)C(=O)N[C@@H](CC(C)C)C(=O)N[C@H](C(=O)N[C@@H](CCCNC(=N)N)C(=O)N[C@@H](CCC(N)=O)C(=O)N[C@@H](CCCNC(=N)N)C(=O)N(C)[C@@H](Cc1ccc(O)cc1)C(N)=O)[C@@H](C)O [Compound A63] (H-PKPEAPK([γGlu-γGlu-C20 diacid])KDASPEELNRYYADARHYLNWLTRQR[NMeY]-NH2; N-terminus assumed),inactive,31.6 nM,
CC(C)C[C@H](NC(=O)[C@H](CC(=O)O)NC(=O)[C@H](C)NC(=O)[C@H](Cc1ccc(O)cc1)NC(=O)[C@H](Cc1ccc(O)cc1)NC(=O)[C@H](CCCNC(=N)N)NC(=O)[C@H](CC(N)=O)NC(=O)[C@H](Cc1c[nH]c2ccccc12)NC(=O)[C@H](CCC(=O)O)NC(=O)[C@H](CCC(=O)O)NC(=O)[C@@H]1CCCN1C(=O)[C@H](CO)NC(=O)[C@H](C)NC(=O)[C@H](CC(=O)O)NC(=O)[C@H](CCCCN)NC(=O)CNC(=O)[C@@H]1CCCN1C(=O)[C@H](C)NC(=O)[C@H](CCC(=O)O)NC(=O)[C@@H]1CCCN1C(=O)[C@H](CCCCN)NC(=O)[C@@H]1CCCN1)C(=O)N[C@@H](CCCNC(=N)N)C(=O)N[C@@H](Cc1c[nH]cn1)C(=O)N[C@@H](Cc1ccc(O)cc1)C(=O)N[C@@H](CC(C)C)C(=O)N[C@@H](CC(N)=O)C(=O)N[C@@H](Cc1c[nH]c2ccccc12)C(=O)N[C@@H](CC(C)C)C(=O)N[C@H](C(=O)N[C@@H](CCCNC(=N)N)C(=O)N[C@@H](CCCCNC(=O)CC[C@H](NC(=O)CC[C@H](NC(=O)CCCCCCCCCCCCCCCCCCC(=O)O)C(=O)O)C(=O)O)C(=O)N[C@@H](CCCNC(=N)N)C(=O)N[C@@H](Cc1ccccc1)C(N)=O)[C@@H](C)O [Compound A50],inactive,,
